Source: patent US20260232658A1, “AZETIDINYL BENZOXAZOLE COMPOUNDS AND THEIR USE AS MER AND AXL INHIBITORS” (DONG-A ST CO., LTD., priority 2022, published 2026)

How the values were obtained:
human MER (528-end) = molecular target: T1, human MER (528-end) (Homo sapiens, UniProt Q12866); assay: HTRF kinase activity biochemical assay, MER; details: recombinant kinase, 10 uM ATP, 30 minutes pre-incubation; read-out: HTRF MERTK IC50;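 further: phosphorylation of a biotin-tagged tyrosine kinase substrate detected by Eu3+-cryptate antibody and streptavidin-XL665 time-resolved fluorescence, read after 1 h at room temperature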
T1 construct: human MER (528-end); purchased Carnabio, Japan
T1 sequence (Q12866 528-999 limits assumed): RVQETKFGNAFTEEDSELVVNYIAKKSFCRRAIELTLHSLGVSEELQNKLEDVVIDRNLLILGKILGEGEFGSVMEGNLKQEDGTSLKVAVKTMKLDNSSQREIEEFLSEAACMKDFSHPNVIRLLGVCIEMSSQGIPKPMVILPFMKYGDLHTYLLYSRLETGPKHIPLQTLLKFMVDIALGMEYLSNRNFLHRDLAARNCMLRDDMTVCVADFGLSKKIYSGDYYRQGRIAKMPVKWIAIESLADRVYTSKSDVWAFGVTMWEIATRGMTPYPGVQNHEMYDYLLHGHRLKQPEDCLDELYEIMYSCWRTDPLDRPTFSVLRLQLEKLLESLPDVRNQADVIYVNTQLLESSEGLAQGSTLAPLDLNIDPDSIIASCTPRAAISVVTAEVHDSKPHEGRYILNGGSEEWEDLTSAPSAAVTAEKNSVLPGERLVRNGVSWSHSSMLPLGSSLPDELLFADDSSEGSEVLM

human AXL (473-end) = molecular target: T2, human AXL (473-end) (Homo sapiens, UniProt P30530); assay: HTRF kinase activity biochemical assay, AXL; details: recombinant kinase, 10 uM ATP, 30 minutes pre-incubation; read-out: HTRF AXL IC50;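 further: phosphorylation of a biotinylated tyrosine kinase substrate detected via Eu3+-cryptate anti-TK antibody and streptavidin-XL665, fluorescence read after a 1 h incubation at room temperature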
T2 construct: human AXL (473-end); purchased SignalChem, Canada
T2 sequence (P30530 473-894 limits assumed): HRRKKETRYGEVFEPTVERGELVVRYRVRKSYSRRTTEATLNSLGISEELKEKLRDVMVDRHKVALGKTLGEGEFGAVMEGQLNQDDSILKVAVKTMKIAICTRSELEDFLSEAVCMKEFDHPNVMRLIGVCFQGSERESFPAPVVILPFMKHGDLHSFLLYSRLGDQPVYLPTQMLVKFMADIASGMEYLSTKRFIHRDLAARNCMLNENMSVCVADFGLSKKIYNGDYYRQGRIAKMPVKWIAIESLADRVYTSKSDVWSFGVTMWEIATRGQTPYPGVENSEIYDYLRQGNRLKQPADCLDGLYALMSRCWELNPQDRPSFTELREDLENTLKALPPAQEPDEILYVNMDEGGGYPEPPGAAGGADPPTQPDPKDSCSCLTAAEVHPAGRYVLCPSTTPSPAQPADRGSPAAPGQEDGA

TYRO3 (455-end) = molecular target: T3, TYRO3 (455-end) (Homo sapiens, UniProt Q06418); assay: HTRF kinase activity biochemical assay, TYRO3; details: recombinant kinase, 10 uM ATP, 30 minutes pre-incubation; read-out: HTRF TYRO IC50;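 further: biotinylated tyrosine kinase substrate phosphorylation detected via streptavidin-XL665 and Eu3+-cryptate anti-phospho antibody time-resolved fluorescence, read after 1 h detection at room temperature, 384-well format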
T3 construct: TYRO3 (455-end); purchased SignalChem, Canada
T3 sequence (Q06418 455-890 limits assumed): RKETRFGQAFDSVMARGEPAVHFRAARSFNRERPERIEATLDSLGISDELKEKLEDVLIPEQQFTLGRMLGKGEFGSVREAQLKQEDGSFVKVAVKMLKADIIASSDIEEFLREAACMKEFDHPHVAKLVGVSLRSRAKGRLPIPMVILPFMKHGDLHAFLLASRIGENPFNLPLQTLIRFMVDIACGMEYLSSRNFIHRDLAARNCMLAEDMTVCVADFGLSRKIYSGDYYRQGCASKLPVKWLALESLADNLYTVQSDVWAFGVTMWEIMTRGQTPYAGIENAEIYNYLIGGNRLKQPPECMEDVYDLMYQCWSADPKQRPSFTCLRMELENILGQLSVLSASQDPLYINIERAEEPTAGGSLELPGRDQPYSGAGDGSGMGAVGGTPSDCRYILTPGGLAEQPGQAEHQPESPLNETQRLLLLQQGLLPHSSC

SMILES: CC(C)(O)CCOc1ccc2nc(N3CC(c4cnc(Nc5cnn(C(C)(C)C)c5)c(C(N)=O)n4)C3)oc2c1 [Example 94, 3-[(1-tert-butyl-1H-pyrazol-4-yl)amino]-6-{1-[6-(3-hydroxy-3-methylbutoxy)-1,3-benzoxazol-2-yl]azetidin-3-yl}pyrazine-2-carboxamide]
- IC50 (human MER (528-end)): < 1 nM
- IC50 (human AXL (473-end)): 3 nM
- IC50 (TYRO3 (455-end)): 910 nM

SMILES: Cn1cc(Nc2ncc(C3CN(c4nc5ccc(-c6cnn(CCO)c6)cc5o4)C3)nc2C(N)=O)cn1 [Example 90, 6-(1-{6-[1-(2-hydroxyethyl)-1H-pyrazol-4-yl]-1,3-benzoxazol-2-yl}azetidin-3-yl)-3-[(1-methyl-1H-pyrazol-4-yl)amino]pyrazine-2-carboxamide]
- IC50 (human MER (528-end)): 2 nM
- IC50 (human AXL (473-end)): 4 nM
- IC50 (TYRO3 (455-end)): 880 nM

SMILES: Cn1cc(Nc2ncc(C3CN(c4nc5ccc(OC[C@H]6COCCO6)cc5o4)C3)nc2C(N)=O)cn1 [Example 48, 6-[1-(6-{[(2R)-1,4-dioxan-2-yl]methoxy}-1,3-benzoxazol-2-yl)azetidin-3-yl]-3-[(1-methyl-1H-pyrazol-4-yl)amino]pyrazine-2-carboxamide]
- IC50 (human MER (528-end)): 2 nM
- IC50 (human AXL (473-end)): 3 nM
- IC50 (TYRO3 (455-end)): 230 nM

SMILES: Cn1cc(Nc2ncc(C3CN(c4nc5ccc(OCC(C)(C)CO)cc5o4)C3)nc2C(N)=O)cn1 [Example 61, 6-{1-[6-(3-hydroxy-2,2-dimethylpropoxy)-1,3-benzoxazol-2-yl]azetidin-3-yl}-3-[(1-methyl-1H-pyrazol-4-yl)amino]pyrazine-2-carboxamide]
- IC50 (human MER (528-end)): < 1 nM
- IC50 (human AXL (473-end)): 1 nM
- IC50 (TYRO3 (455-end)): 26 nM

SMILES: Cn1cc(Nc2ncc(C3CN(c4nc5ccc(C6CCCC6)cc5o4)C3)nc2C(N)=O)cn1 [Example 10, 6-[1-(6-cyclopentyl-1,3-benzoxazol-2-yl)azetidin-3-yl]-3-[(1-methyl-1H-pyrazol-4-yl)amino]pyrazine-2-carboxamide]
- IC50 (human MER (528-end)): < 1 nM
- IC50 (human AXL (473-end)): < 1 nM
- IC50 (TYRO3 (455-end)): 110 nM

SMILES: Cn1cc(Nc2ncc(C3CN(c4nc5ccc(OCC6COC6)cc5o4)C3)nc2C(N)=O)cn1 [Example 41, 3-[(1-methyl-1H-pyrazol-4-yl)amino]-6-(1-{6-[(oxetan-3-yl)methoxy]-1,3-benzoxazol-2-yl}azetidin-3-yl)pyrazine-2-carboxamide]
- IC50 (human MER (528-end)): < 1 nM
- IC50 (human AXL (473-end)): 2 nM
- IC50 (TYRO3 (455-end)): 210 nM

SMILES: CC(C)(O)CCOc1ccc2nc(N3CC(c4cnc(Nc5cnn(COCC[Si](C)(C)C)c5)c(C(N)=O)n4)C3)oc2c1 [Example 96A, 6-{1-[6-(3-hydroxy-3-methylbutoxy)-1,3-benzoxazol-2-yl]azetidin-3-yl}-3-[(1-{[2-(trimethylsilyl)ethoxy]methyl}-1H-pyrazol-4-yl)amino]pyrazine-2-carboxamide]
- IC50 (human MER (528-end)): 11 nM
- IC50 (human AXL (473-end)): 31 nM
- IC50 (TYRO3 (455-end)): 1390 nM

SMILES: Cn1cc(Nc2ncc(C3CN(c4nc5ccc(OCC(=O)O)cc5o4)C3)nc2C(N)=O)cn1 [Example 73A, {[2-(3-f{6-carbamoyl-5-[(1-methyl-1H-pyrazol-4-yl)amino]pyrazin-2-yl}azetidin-1-yl)-1,3-benzoxazol-6-yl]oxy}acetic acid]
- IC50 (human MER (528-end)): 150 nM
- IC50 (human AXL (473-end)): 210 nM

SMILES: Cn1cnc(-c2ccc3nc(N4CC(c5cnc(Nc6cnn(C)c6)c(C(N)=O)n5)C4)oc3c2)c1 [Example 105, 6-{1-[6-(1-methyl-1H-imidazol-4-yl)-1,3-benzoxazol-2-yl]azetidin-3-yl}-3-[(1-methyl-1H-pyrazol-4-yl)amino]pyrazine-2-carboxamide]
- IC50 (human MER (528-end)): < 1 nM
- IC50 (human AXL (473-end)): 5 nM
- IC50 (TYRO3 (455-end)): 53 nM

SMILES: Cn1cc(Nc2ncc(C3CN(c4nc5ccc(C6=CCOC6)cc5o4)C3)nc2C(N)=O)cn1 [Example 15A, 6-{1-[6-(2,5-dihydrofuran-3-yl)-1,3-benzoxazol-2-yl]azetidin-3-yl}-3-[(1-methyl-1H-pyrazol-4-yl)amino]pyrazine-2-carboxamide]
- IC50 (human MER (528-end)): 2 nM
- IC50 (human AXL (473-end)): 5 nM
- IC50 (TYRO3 (455-end)): 74 nM

SMILES: CCOC(=O)COc1ccc2nc(N3CC(c4cnc(Nc5cnn(C)c5)c(C(N)=O)n4)C3)oc2c1 [Example 26, ethyl {[2-(3-{6-carbamoyl-5-[(1-methyl-1H-pyrazol-4-yl)amino]pyrazin-2-yl}azetidin-1-yl)-1,3-benzoxazol-6-yl]oxy}acetate]
- IC50 (human MER (528-end)): < 1 nM
- IC50 (human AXL (473-end)): 3 nM
- IC50 (TYRO3 (455-end)): 94 nM

SMILES: COCCn1cc(Nc2ncc(C3CN(c4nc5ccc(C)cc5o4)C3)nc2C(N)=O)cn1 [Example 55, 3-{[1-(2-methoxyethyl)-1H-pyrazol-4-yl]amino}-6-[1-(6-methyl-1,3-benzoxazol-2-yl)azetidin-3-yl]pyrazine-2-carboxamide]
- IC50 (human MER (528-end)): 3 nM
- IC50 (human AXL (473-end)): 14 nM
- IC50 (TYRO3 (455-end)): 220 nM

SMILES: CCc1ccc2nc(N3CC(c4cnc(Nc5cnn(C)c5)c(C(N)=O)n4)C3)oc2c1 [Example 5, 6-[1-(6-ethyl-1,3-benzoxazol-2-yl)azetidin-3-yl]-3-[(1-methyl-1H-pyrazol-4-yl)amino]pyrazine-2-carboxamide]
- IC50 (human MER (528-end)): < 1 nM
- IC50 (human AXL (473-end)): 2 nM
- IC50 (TYRO3 (455-end)): 83 nM

SMILES: Cn1cc(Nc2ncc(C3CN(c4nc5ccc(CC(=O)N6CCC[C@H]6CO)cc5o4)C3)nc2C(N)=O)cn1 [Example 66, 6-[1-(6-{2-[(2S)-2-(hydroxymethyl)pyrrolidin-1-yl]-2-oxoethyl}-1,3-benzoxazol-2-yl)azetidin-3-yl]-3-[(1-methyl-1H-pyrazol-4-yl)amino]pyrazine-2-carboxamide]
- IC50 (human MER (528-end)): 2 nM
- IC50 (human AXL (473-end)): 3 nM
- IC50 (TYRO3 (455-end)): 2900 nM

SMILES: Cn1cc(Nc2ncc(C3CN(c4nc5ccc(OCC6CC(O)C6)cc5o4)C3)nc2C(N)=O)cn1 (stereo not drawn) [Example 42, 6-(1-{6-[(3-hydroxycyclobutyl)methoxy]-1,3-benzoxazol-2-yl}azetidin-3-yl)-3-[(1-methyl-1H-pyrazol-4-yl)amino]pyrazine-2-carboxamide]
- IC50 (human MER (528-end)): < 1 nM
- IC50 (human AXL (473-end)): 2 nM
- IC50 (TYRO3 (455-end)): 64 nM

SMILES: CN(C)C(=O)CCc1ccc2nc(N3CC(c4cnc(Nc5cnn(C)c5)c(C(N)=O)n4)C3)oc2c1 [Example 62, 6-(1-{6-[3-(dimethylamino)-3-oxopropyl]-1,3-benzoxazol-2-yl}azetidin-3-yl)-3-[(1-methyl-1H-pyrazol-4-yl)amino]pyrazine-2-carboxamide]
- IC50 (human MER (528-end)): 3 nM
- IC50 (human AXL (473-end)): 6 nM
- IC50 (TYRO3 (455-end)): 1750 nM

SMILES: Cn1cc(Nc2ncc(C3CN(c4nc5ccc(C6CCOC6)cc5o4)C3)nc2C(N)=O)cn1 (stereo not drawn) [Example 15, 3-[(1-methyl-1H-pyrazol-4-yl)amino]-6-{1-[6-(oxolan-3-yl)-1,3-benzoxazol-2-yl]azetidin-3-yl}pyrazine-2-carboxamide]
- IC50 (human MER (528-end)): 3 nM
- IC50 (human AXL (473-end)): 9 nM
- IC50 (TYRO3 (455-end)): 550 nM

SMILES: Cn1cc(Nc2ncc(C3CN(c4nc5ccc(CCCO)cc5o4)C3)nc2C(N)=O)cn1 [Example 32, 6-{1-[6-(3-hydroxypropyl)-1,3-benzoxazol-2-yl]azetidin-3-yl}-3-[(1-methyl-1H-pyrazol-4-yl)amino]pyrazine-2-carboxamide]
- IC50 (human MER (528-end)): 1 nM
- IC50 (human AXL (473-end)): 3 nM
- IC50 (TYRO3 (455-end)): 190 nM

SMILES: Cn1cc(Nc2ncc(C3CN(c4nc5ccc(O)cc5o4)C3)nc2C(N)=O)cn1 [Example 20, 6-[I1-(6-hydroxy-1,3-benzoxazol-2-yl)azetidin-3-yl]-3-[(1-methyl-1H-pyrazol-4-yl)amino]pyrazine-2-carboxamide]
- IC50 (human MER (528-end)): 29 nM
- IC50 (TYRO3 (455-end)): 980 nM

SMILES: Cn1cc(Nc2ncc(C3CN(c4nc5ccc(/C=C/C(C)(C)O)cc5o4)C3)nc2C(N)=O)cn1 [Example 17, 6-(1-{6-[(1E)-3-hydroxy-3-methylbut-1-en-1-yl]-1,3-benzoxazol-2-yl}azetidin-3-yl)-3-[(1-methyl-1H-pyrazol-4-yl)amino]pyrazine-2-carboxamide]
- IC50 (human AXL (473-end)): 2 nM
- IC50 (TYRO3 (455-end)): 241 nM
